Test results published in US8415469B2, “Compounds and methods for kinase modulation, and indications therefor” (Plexxikon Inc., priority 2005, dated 2013).

How the values were obtained:
Type in all cases: biochemical
B-Raf V600E = biological target: T1, B-Raf V600E (Homo sapiens, UniProt P15056, V600E); test: AlphaScreen kinase assay, B-Raf V600E; settings: read-out: IC50, activity toward kinase B-Raf V600E
T1 construct: P4254. pFastBacBD-CDC37 BRAF D437-K722-X, V600E; His6 with pFastBac HT leader (TEV site) (N); made in house; host or cells: Sf9 (baculovirus; chaperone CDC37 co-expressed)
T1 sequence (P15056 with tags, fused parts or gaps V600E): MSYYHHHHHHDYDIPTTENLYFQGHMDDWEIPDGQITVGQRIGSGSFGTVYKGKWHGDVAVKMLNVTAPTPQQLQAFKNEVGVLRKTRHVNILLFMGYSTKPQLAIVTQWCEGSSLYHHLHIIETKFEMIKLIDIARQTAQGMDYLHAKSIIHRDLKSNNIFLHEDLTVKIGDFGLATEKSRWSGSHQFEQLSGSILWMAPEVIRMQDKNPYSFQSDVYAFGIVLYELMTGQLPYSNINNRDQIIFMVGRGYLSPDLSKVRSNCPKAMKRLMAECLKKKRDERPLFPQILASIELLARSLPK

Btk = biological target: T2, Btk (Homo sapiens, UniProt Q06187); test: Z'-Lyte FRET kinase assay (Invitrogen), Btk; settings: read-out: IC50, activity toward kinase Btk
T2 construct: purchased Invitrogen (assay run by Invitrogen)
T2 sequence (Q06187 whole entry): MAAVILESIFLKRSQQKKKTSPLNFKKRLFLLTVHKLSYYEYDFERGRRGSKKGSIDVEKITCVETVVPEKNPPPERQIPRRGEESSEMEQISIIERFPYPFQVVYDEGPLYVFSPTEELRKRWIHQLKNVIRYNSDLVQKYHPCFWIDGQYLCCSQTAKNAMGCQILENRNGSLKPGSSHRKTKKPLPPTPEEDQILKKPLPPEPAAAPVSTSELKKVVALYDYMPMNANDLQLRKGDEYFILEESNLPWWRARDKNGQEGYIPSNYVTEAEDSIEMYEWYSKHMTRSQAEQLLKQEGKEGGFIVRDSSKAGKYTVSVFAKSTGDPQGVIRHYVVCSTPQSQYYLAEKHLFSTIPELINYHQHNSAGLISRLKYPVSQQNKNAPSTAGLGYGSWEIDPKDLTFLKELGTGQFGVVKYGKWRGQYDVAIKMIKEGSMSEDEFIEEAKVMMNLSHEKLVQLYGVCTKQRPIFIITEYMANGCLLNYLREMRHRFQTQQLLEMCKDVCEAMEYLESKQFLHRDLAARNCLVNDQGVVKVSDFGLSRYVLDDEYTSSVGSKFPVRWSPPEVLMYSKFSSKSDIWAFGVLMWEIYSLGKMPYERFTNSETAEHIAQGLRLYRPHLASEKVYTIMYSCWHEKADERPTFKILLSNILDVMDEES

EphB2 = biological target: T3, EphB2 (Homo sapiens, UniProt P29323); test: Z'-Lyte FRET kinase assay (Invitrogen), EphB2; settings: read-out: IC50, activity toward kinase EphB2
T3 construct: purchased Invitrogen (assay run by Invitrogen)
T3 sequence (P29323 19-1055): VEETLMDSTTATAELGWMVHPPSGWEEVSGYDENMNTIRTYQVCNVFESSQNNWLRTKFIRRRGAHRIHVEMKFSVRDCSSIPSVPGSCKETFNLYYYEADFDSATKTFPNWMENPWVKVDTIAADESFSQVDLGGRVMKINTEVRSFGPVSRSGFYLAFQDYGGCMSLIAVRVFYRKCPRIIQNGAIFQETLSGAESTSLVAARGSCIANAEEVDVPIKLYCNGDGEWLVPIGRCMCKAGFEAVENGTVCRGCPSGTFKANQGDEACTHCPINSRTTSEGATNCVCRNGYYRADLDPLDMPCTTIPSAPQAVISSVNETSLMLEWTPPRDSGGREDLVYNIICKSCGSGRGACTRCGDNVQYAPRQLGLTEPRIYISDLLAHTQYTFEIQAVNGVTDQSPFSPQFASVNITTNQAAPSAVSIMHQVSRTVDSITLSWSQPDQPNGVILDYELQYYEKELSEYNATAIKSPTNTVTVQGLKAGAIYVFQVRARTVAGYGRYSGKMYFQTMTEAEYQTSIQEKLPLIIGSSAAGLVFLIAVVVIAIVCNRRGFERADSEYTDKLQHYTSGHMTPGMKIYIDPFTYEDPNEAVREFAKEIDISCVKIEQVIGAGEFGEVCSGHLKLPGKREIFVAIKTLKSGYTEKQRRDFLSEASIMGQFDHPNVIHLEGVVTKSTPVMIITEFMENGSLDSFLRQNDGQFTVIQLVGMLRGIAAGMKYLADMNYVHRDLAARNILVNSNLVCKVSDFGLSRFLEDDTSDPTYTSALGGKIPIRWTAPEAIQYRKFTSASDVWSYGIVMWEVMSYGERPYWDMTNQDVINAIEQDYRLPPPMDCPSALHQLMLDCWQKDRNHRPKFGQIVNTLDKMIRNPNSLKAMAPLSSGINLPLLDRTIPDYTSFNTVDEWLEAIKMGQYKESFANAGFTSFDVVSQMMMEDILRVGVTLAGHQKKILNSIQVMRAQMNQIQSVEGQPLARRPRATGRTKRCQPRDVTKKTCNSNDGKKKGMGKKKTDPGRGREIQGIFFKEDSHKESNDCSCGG
Text: The effect of potential modulators of kinase activity can be measured in a variety of different assays known in the art. For example, direct radiometric, indirect FRET or AlphaScreen assays may be used to assess the level of phosphorylation of a substrate in the presence of test compounds in order to determine the inhibitory affect of the compound on the kinase. Invitrogen (Carlsbad, Calif.) uses a FRET based assay for Btk, EGFR, EphB2, Flt3, lrak4, Kdr, MAP2K1, MAPKAPK2, PDGFRB, PKC theta, Stk6 and Yes. For these assays, compounds of the invention were screened by Invitrogen using Z′-Lyte™ kinase assay.
Briefly, the Invitrogen kinase assay involves use of a specific peptide substrate optimized for each kinase, containing a fluorophore at each end that make up the FRET pair. The peptide sensitivity to proteolytic cleavage depends on phosphorylation of the peptide. Non-phosphorylated peptide is cleaved by a protease while peptide phosphorylated by the kinase is not cleaved. Cleavage of the peptide disrupts the FRET between the donor (coumarin) and acceptor (fluorescein) fluorophores, resulting in an increase in the ratio of donor emission to acceptor emission. The emission ratio of coumarin to fluorescein is used to assess the reaction progress. The extent of phosphorylation is determined from the emission ratio, which is low when the kinase is active (phosphorylated peptide is not cleaved, FRET pair connected) or higher for inhibited kinase (non-phosphorylated peptide is cleaved, FRET pair separated). Thus, the assay involves a kinase reaction in the presence of varying concentrations of a given compound, a development reaction with site specific protease, and detection of the fluorescent emission ratio of coumarin and fluorscein. […] Reaction conditions for each kinase are determined to provide optimal reaction times, incubation temperature, kinase and ATP concentrations. Test samples are made up in 1× kinase buffer (50 mM HEPES pH 7.5, 50 mM MgCl2, 5 mM EGTA, 0.05% BRIJ-35) and compound at desired concentration prepared in DMSO such that the final DMSO is 1%. […] Typically, assay plates are prepared to 10 μl final volume per sample, adding 2.5 μl of compound at 4× the desired concentration in 4% DMSO (serial dilution of compound provides concentration curve), 5 μl of the desired kinase mixed with Z′-LYTE™ peptide substrate (2× in 2× kinase buffer, final peptide at 2 μM), and 2.5 μl of 4×ATP solution. All kinase except for MAP2K1 were at 10 μM ATP in the kinase reaction, while MAP2K1 was at 100 μM. Samples are mixed and the kinase reaction is incubated 1 hour at room temperature, after which 5 μl of development solution is added and mixed. After incubation for another 1 hour at room temperature, 5 μl of stop reagent is added to each sample and mixed. The fluorescence signals are measured to determine the emission ratio.

FGFR1 = biological target: T4, FGFR1 (Homo sapiens, UniProt P11362, C488A/C584S); test: AlphaScreen kinase assay, FGFR1; settings: read-out: IC50, activity toward kinase FGFR
T4 construct: P1351.pET N6 BI-PTP FGFR A458-E765-X C488A, C584S; made in house; host or cells: E. coli (PTP1B co-expressed)
T4 sequence (P11362 458-765 C488A/C584S): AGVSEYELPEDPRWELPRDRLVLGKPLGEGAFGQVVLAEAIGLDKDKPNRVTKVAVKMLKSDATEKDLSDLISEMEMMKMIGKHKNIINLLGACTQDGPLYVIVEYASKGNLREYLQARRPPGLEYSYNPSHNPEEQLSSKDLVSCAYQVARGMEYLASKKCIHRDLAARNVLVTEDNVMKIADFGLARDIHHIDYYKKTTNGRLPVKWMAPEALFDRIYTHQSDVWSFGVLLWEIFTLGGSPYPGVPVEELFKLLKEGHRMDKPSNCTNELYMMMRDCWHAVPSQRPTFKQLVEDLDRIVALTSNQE

Kdr = biological target: T5, Kdr (Homo sapiens, UniProt P35968); test: Z'-Lyte FRET kinase assay (Invitrogen), Kdr; settings: read-out: IC50, activity toward kinase Kdr
T5 construct: purchased Invitrogen (assay run by Invitrogen)
T5 sequence (P35968 20-1356): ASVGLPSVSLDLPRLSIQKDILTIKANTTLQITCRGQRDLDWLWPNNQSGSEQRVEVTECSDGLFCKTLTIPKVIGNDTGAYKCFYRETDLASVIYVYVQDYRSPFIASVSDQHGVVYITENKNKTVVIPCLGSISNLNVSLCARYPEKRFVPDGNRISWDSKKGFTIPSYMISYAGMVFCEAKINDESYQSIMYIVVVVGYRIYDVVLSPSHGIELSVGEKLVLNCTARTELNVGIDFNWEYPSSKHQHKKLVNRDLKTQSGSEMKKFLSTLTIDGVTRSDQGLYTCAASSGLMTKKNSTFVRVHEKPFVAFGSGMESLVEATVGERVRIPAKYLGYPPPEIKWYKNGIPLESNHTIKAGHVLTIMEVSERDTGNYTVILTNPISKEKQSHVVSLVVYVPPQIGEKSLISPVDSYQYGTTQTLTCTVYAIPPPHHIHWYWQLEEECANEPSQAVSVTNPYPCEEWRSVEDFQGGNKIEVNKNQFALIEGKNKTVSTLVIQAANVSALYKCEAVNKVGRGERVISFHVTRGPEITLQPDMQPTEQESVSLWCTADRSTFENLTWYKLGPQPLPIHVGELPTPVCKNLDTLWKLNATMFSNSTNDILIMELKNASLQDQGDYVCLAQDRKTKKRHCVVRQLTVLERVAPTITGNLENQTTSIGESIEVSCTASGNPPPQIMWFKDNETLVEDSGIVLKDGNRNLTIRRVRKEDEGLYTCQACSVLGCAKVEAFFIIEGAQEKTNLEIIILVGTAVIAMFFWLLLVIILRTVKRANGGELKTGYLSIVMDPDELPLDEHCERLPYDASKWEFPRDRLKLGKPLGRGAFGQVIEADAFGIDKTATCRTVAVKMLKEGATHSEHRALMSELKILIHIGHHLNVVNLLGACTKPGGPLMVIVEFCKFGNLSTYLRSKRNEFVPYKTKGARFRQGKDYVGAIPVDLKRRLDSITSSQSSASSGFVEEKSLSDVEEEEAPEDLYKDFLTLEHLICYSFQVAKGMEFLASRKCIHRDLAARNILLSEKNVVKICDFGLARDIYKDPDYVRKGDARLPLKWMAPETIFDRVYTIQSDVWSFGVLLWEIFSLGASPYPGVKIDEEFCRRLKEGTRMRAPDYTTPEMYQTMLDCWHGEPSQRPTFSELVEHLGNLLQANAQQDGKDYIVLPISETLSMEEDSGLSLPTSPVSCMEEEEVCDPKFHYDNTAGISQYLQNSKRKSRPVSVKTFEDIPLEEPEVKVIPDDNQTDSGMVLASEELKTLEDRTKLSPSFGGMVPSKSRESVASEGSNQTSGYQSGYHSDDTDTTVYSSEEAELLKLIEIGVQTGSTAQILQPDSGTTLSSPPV

Ret = biological target: T6, Ret (Homo sapiens, UniProt P07949); test: AlphaScreen kinase assay, Ret; settings: read-out: IC50, activity toward kinase Ret
T6 construct: P1378.pET-SF BI-PTP RET H661-R1012 HIS; made in house
T6 sequence (P07949 with tags, fused parts or gaps): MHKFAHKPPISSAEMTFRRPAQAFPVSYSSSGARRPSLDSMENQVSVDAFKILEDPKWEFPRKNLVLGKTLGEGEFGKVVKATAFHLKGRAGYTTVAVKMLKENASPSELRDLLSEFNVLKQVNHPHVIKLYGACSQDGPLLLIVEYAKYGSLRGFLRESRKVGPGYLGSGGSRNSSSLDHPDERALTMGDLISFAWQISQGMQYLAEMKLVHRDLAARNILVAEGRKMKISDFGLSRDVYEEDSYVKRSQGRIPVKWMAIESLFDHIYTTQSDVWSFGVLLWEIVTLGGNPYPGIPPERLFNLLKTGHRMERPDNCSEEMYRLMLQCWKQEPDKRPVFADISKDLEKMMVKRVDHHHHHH

Stk6 = biological target: T7, Stk6 (Homo sapiens, UniProt O14965); test: Z'-Lyte FRET kinase assay (Invitrogen), Stk6; settings: read-out: IC50, activity toward kinase Stk6
T7 construct: purchased Invitrogen (Carlsbad, Calif.), screening service
T7 sequence (O14965 1-403): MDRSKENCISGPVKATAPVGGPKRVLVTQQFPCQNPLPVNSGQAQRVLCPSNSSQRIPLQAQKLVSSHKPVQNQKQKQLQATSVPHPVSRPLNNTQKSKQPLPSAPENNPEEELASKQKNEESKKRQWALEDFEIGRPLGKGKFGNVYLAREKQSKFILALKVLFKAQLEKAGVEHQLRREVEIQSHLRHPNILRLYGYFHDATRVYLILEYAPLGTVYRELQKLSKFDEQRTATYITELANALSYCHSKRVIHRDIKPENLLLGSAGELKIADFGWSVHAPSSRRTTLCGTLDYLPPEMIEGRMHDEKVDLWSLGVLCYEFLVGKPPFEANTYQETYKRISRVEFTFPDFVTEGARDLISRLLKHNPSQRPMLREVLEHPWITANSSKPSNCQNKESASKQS

Yes = biological target: T8, Yes (Homo sapiens, UniProt P07947); test: Z'-Lyte FRET kinase assay (Invitrogen), Yes; settings: read-out: IC50, activity toward kinase Yes
T8 construct: purchased Invitrogen (Carlsbad, Calif.), screening service
T8 sequence (P07947 whole entry): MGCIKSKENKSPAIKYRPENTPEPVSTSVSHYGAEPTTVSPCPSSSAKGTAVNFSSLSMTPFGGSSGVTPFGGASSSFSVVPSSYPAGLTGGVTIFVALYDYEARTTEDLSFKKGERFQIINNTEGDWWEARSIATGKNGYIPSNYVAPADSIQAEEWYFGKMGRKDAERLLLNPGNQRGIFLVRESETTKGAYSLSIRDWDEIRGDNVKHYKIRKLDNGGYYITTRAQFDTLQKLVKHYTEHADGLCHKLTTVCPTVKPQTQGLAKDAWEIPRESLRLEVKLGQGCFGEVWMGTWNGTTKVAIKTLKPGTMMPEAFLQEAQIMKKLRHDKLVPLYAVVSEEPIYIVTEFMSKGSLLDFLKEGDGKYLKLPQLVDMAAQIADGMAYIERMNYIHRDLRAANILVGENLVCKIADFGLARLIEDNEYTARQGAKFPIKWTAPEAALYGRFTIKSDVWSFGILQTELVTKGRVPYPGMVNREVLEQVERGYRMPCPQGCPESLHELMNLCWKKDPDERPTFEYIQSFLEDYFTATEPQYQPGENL
In short: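 Inhibition was inferred from protease cleavage of non-phosphorylated peptide, measured as a coumarin/fluorescein ratio. Kinase reactions used 10 μM ATP for 1 h at room temperature.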

B-Raf = biological target: T9, B-Raf (Homo sapiens, UniProt P15056); test: AlphaScreen kinase assay, B-Raf; settings: read-out: IC50, activity toward kinase B-Raf
T9 construct: purchased Upstate Biotechnology
T9 sequence (P15056 whole entry): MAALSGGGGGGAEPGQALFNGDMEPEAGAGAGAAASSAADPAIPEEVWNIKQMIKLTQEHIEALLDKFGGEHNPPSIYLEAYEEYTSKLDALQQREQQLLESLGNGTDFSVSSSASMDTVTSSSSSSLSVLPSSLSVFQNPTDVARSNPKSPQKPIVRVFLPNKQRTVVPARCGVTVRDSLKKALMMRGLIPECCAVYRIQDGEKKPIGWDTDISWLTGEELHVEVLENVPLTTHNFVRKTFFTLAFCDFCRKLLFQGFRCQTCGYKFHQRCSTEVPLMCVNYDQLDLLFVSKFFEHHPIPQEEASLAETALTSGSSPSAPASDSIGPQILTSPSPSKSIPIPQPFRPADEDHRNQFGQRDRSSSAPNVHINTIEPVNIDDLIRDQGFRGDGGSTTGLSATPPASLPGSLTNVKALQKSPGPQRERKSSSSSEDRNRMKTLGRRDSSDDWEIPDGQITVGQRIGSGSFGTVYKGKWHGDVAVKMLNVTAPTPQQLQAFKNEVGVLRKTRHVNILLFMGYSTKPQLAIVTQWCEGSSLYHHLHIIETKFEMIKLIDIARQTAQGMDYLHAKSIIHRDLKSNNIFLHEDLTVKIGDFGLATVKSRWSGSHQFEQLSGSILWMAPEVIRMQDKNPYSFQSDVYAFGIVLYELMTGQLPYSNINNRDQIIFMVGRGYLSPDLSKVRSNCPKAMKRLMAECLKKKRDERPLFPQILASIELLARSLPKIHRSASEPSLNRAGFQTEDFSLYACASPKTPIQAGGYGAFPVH

Jnk3 = biological target: T10, Jnk3 (Homo sapiens, UniProt P53779); test: AlphaScreen kinase assay, Jnk3; settings: read-out: IC50, activity toward kinase Jnk3
T10 construct: purchased Upstate Biotechnology
T10 sequence (P53779 whole entry): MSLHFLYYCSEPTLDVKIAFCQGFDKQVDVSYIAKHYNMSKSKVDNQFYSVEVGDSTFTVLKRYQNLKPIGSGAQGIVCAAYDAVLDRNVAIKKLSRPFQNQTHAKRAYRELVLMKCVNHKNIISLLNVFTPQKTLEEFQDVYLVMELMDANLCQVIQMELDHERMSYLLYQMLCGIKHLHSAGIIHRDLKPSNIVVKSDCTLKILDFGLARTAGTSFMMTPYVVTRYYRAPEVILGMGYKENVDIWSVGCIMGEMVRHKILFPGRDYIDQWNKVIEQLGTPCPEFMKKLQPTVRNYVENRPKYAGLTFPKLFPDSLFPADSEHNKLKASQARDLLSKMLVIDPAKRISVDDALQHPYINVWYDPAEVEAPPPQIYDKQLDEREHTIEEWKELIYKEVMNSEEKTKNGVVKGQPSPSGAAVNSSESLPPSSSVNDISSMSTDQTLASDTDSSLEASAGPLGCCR

Kit = biological target: T11, Kit (Homo sapiens, UniProt P10721); test: AlphaScreen kinase assay, Kit; settings: read-out: IC50, activity toward kinase Kit
T11 construct: P1332.N6 BI PTP KIT M552-K948-X COD; His6 (N); made in house; host or cells: E. coli (PTP1B co-expressed)
T11 sequence (P10721 with tags, fused parts or gaps): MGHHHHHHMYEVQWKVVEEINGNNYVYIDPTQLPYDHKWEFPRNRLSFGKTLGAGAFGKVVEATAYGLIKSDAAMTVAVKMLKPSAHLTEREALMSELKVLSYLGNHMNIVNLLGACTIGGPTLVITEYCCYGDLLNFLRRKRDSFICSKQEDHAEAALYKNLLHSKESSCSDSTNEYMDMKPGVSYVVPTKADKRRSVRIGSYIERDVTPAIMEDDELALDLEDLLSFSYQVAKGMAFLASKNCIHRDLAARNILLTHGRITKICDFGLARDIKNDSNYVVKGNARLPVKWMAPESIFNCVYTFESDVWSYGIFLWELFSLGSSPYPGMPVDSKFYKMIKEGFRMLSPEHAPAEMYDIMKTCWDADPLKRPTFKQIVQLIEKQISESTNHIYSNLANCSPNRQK
Text: AlphaScreen assay was used to screen additional kinases. The assay is similarly dependent on the phosphorylation of a peptide substrate. In this assay, an antibody that recognizes phosphorylated substrate is bound to an acceptor bead. The peptide substrate is attached to biotin, which binds to a donor head that contains streptavidin. Thus phosphorylated substrate is bound by antibody and streptavidin, bringing the donor and acceptor heads into close proximity when kinase is not inhibited. The donor produces singlet oxygen which results in emission from the acceptor when they are in close proximity. Conversely, when kinase is inhibited, the donor and acceptor beads are not associated and the emission from the acceptor is reduced.
AlphaScreen assays were done using compounds dissolved in DMSO to a concentration of 20 mM. The compounds were diluted accordingly to the desired final concentrations in each sample well, using 1:3 serial dilution for a total of 8 concentration points. Plates were prepared such that each kinase reaction is 20 μl in 1× kinase buffer, 5% DMSO and 10 μM ATP. After incubation of the kinase reaction for 1 hour at room temperature, 5 μl of donor beads in stop buffer (50 mM EDTA in 1× kinase buffer) was added, the sample was mixed and incubated for 20 minutes at room temperature before adding 5 μl of acceptor beads in stop buffer. The samples were incubated for 60 minutes at room temperature and the signal per well was read on AlphaQuest reader.

Fms = biological target: T12, Fms (Homo sapiens, UniProt P07333); test: AlphaScreen kinase assay, Fms; settings: read-out: IC50, activity toward kinase Fms
T12 construct: purchased Upstate Biotechnology

Measured: IC50

O=C(c1cccc(Cl)c1Cl)c1c[nH]c2nccc(-c3cccnc3)c12 [Compound P-0043]
not listed: B-Raf | Jnk3 | Kit | Fms
≤ 10 µM: all other assays above

CCc1cnc2[nH]cc(C(=O)c3cccc(O)c3)c2c1 [Compound P-0059]
not listed: Stk6 | Fms
≤ 10 µM: all other assays above

O=C(c1ccccc1F)c1c[nH]c2nccc(-c3cccnc3)c12 [Compound P-0062]
≤ 10 µM: B-Raf V600E | EphB2 | Yes

COc1ccc(-c2ccnc3[nH]cc(C(=O)c4cccc(Cl)c4Cl)c23)cn1 [Compound P-0107]
≤ 10 µM: B-Raf V600E | Btk | EphB2 | Kdr | Ret | Yes

Brc1cnc2[nH]cc(Sc3ccccc3)c2c1 [Compound P-0125]
≤ 10 µM: Btk | EphB2 | Kdr | Yes

COC(c1c(F)ccc(O)c1F)c1c[nH]c2ncc(Br)cc12 (centres unmarked) [Compound P-0126, 3-[(5-Bromo-1H-pyrrolo[2,3-b]pyridin-3-yl)-methoxy-methyl]-2,4-difluoro-phenol]
≤ 10 µM: B-Raf | B-Raf V600E | EphB2 | Kdr | Yes

NC(=O)c1cccc(-c2ccnc3[nH]cc(C(=O)c4cccc(Cl)c4Cl)c23)c1 [Compound P-0139]
≤ 10 µM: B-Raf V600E | Btk | EphB2 | Kdr | Ret | Yes

COc1cccc(Sc2c[nH]c3ncc(Br)cc23)c1 [Compound P-0145]
≤ 10 µM: Btk | EphB2 | Fms | Kdr | Yes

CC(=O)Nc1cccc(-c2ccnc3[nH]cc(C(=O)c4cccc(Cl)c4Cl)c23)c1 [Compound P-0186]
≤ 10 µM: B-Raf V600E | EphB2 | Ret
